This is an account of results in PubChem BioAssay (NCI).

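Assay format: 96-well plates, 48-hour exposure. GI50 marks 50% less growth. TGI: total growth inhibition.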 Some results are limits rather than exact numbers.

Test systems include CCRF-CEM leukemia; HCT-116 colon; HCT-15 colon; HT29 colon; NCI-H226 lung; SF-539 CNS; SK-MEL-28 melanoma; SN12C renal; SR leukemia; TK-10 renal.
Holding throughout (experiment): DTP human tumour cell line panel, 48 h

Broadly, the TGI is the concentration giving total growth inhibition. A high value points to lower sensitivity of the cells. As to `CC(=O)OC1C(COC(N)=O)OC(n2c(-c3ccc(C)cc3)cc(-c3ccccc3)c(C#N)c2=O)C(OC(C)=O)C1OC(C)=O` (stereo unspecified), the total growth inhibition concentration (TGI) in the test on CCRF-CEM leukemia, in the test on HCT-116 colon, in the test on HCT-15 colon, in the test with HT29 colon, with NCI-H226 lung and with SF-539 CNS was more than 100 µM in each case. In addition, the TGI with SK-MEL-28 melanoma, in the test with SN12C renal, in the test on SR leukemia and in the test with TK-10 renal was more than 100 µM in each case.

For orientation: GI50 means the concentration at which growth is held to half of that of the control. For the compound `O=C(NC(=S)Nc1ccc(-c2nc3ccccc3[nH]2)cc1)c1ccc2ccccc2c1`, the GI50 was 6 µM in the test on CCRF-CEM leukemia; 2560 nM in the test with HCT-116 colon; 3.15 µM in the test on HCT-15 colon; 4610 nM with HT29 colon; 4.36 µM in the test on NCI-H226 lung; 2070 nM in the test with SF-539 CNS. In addition, the GI50 in the test with SK-MEL-28 melanoma is 3.86 µM; in the test on SN12C renal, 3.18 µM; in the test with SR leukemia, 645 nM; with TK-10 renal, 3.33 µM. For the same compound, the total growth inhibition concentration (TGI) with CCRF-CEM leukemia is more than 100 µM; in the test with HCT-116 colon it was 7.33 µM; in the test with HCT-15 colon, 50.1 µM; in the test on HT29 colon, more than 100 µM; in the test with NCI-H226 lung, 25.4 µM; in the test with SF-539 CNS it was 4.53 µM. For the same compound, the TGI in the test with SK-MEL-28 melanoma turned out to be 23.4 µM; in the test with SN12C renal, 9.81 µM; in the test on SR leukemia, 11.6 µM; with TK-10 renal it was 8.44 µM.

`CCC(CO)COC(=O)/C=C/C(=O)OCC(CC)CO` (stereo unspecified): the concentration for total growth inhibition (TGI) was more than 82.6 µM in the test on CCRF-CEM leukemia; more than 100 µM in the test with HCT-116 colon; more than 100 µM with HCT-15 colon; more than 100 µM in the test with HT29 colon; more than 100 µM in the test on NCI-H226 lung; more than 100 µM in the test with SF-539 CNS. The total growth inhibition concentration (TGI) in the test with SK-MEL-28 melanoma was more than 100 µM; with SN12C renal, more than 100 µM; in the test on SR leukemia, more than 95.6 µM; in the test on TK-10 renal, more than 100 µM.

As to `O=C(/C=C/c1cccnc1)c1ccccc1`, the GI50 with CCRF-CEM leukemia is 3.2 µM; in the test with HCT-116 colon, 2140 nM; with HCT-15 colon, 4.1 µM; in the test on HT29 colon it was 2310 nM; in the test on NCI-H226 lung, 14.6 µM; with SF-539 CNS, 13300 nM. The GI50 with SK-MEL-28 melanoma is 13.1 µM; in the test on SN12C renal, 12.2 µM; with SR leukemia it was 2000 nM; in the test with TK-10 renal, 13.9 µM. The total growth inhibition concentration (TGI) in the test with CCRF-CEM leukemia came out at 9.91 µM; in the test on HCT-116 colon, 5.83 µM; in the test on HCT-15 colon it was 20.2 µM; with HT29 colon, 5.92 µM; in the test on NCI-H226 lung, 28.1 µM; with SF-539 CNS, 28.6 µM. For the same compound, the TGI in the test on SK-MEL-28 melanoma is 25.8 µM; in the test on SN12C renal it was 25.9 µM; with SR leukemia, 6.21 µM; in the test on TK-10 renal, 27.1 µM.

With `CC(=O)NS(=O)(=O)c1ccc(-n2nc(-c3ccccc3)cc2-c2cc(O)ccc2O)cc1`, the GI50 in the test with CCRF-CEM leukemia is more than 100 µM; in the test on HCT-116 colon, 27200 nM; in the test on HCT-15 colon it was more than 100 µM; with HT29 colon it was more than 100000 nM; in the test on NCI-H226 lung, more than 100 µM; with SK-MEL-28 melanoma it was more than 100 µM. In addition, the figures for the GI50 in the test on SN12C renal, in the test on SR leukemia and in the test on TK-10 renal were more than 100 µM, more than 100000 nM and 10.9 µM, respectively. Also, the TGI with CCRF-CEM leukemia, in the test with HCT-116 colon, in the test on HCT-15 colon, in the test with HT29 colon, in the test with NCI-H226 lung and in the test with SK-MEL-28 melanoma was more than 100 µM in each case. Besides, the TGI in the test with SN12C renal, with SR leukemia and with TK-10 renal was more than 100 µM in each case.

Regarding `Cn1cnc([N+](=O)[O-])c1Sc1nccn1-c1ccccc1`, the TGI in the test with CCRF-CEM leukemia, with HCT-116 colon, in the test with HT29 colon, with NCI-H226 lung, in the test on SF-539 CNS and with SK-MEL-28 melanoma was more than 100 µM each time. For the same compound, the figures for the TGI with SN12C renal, in the test on SR leukemia and in the test on TK-10 renal were more than 100 µM, 62.3 µM and more than 100 µM, respectively.

In the case of `O=C1/C(=C\c2ccc(Cl)cc2)CN(C(=O)c2ccccc2)C/C1=C\c1ccc(Cl)cc1`, the GI50 with CCRF-CEM leukemia is 2.5 µM; in the test on HCT-116 colon, 337 nM; with HCT-15 colon, 1.86 µM; with HT29 colon, 1660 nM; with SF-539 CNS, 2150 nM; in the test with SK-MEL-28 melanoma it was 2.94 µM. Also, the figures for the GI50 in the test on SN12C renal and in the test on TK-10 renal were 2.16 µM and 3.59 µM, respectively. In addition, the TGI was more than 70.2 µM in the test on CCRF-CEM leukemia; 1.04 µM in the test with HCT-116 colon; 5.03 µM in the test with HCT-15 colon; 5 µM in the test with HT29 colon; more than 20.1 µM with NCI-H226 lung; 5.13 µM in the test on SF-539 CNS. The TGI is 9.68 µM with SK-MEL-28 melanoma, 5.4 µM in the test on SN12C renal and 14.1 µM in the test with TK-10 renal.

For `O=C1C2=C(c3ccccc31)C(c1ccccc1Cl)NC(=S)N2` (stereo unspecified), the TGI in the test on CCRF-CEM leukemia, with HCT-116 colon, in the test with HCT-15 colon, with HT29 colon, with NCI-H226 lung and with SF-539 CNS was more than 100 µM in each case. Moreover, the concentration for total growth inhibition (TGI) in the test with SK-MEL-28 melanoma, in the test on SN12C renal and in the test on TK-10 renal was more than 100 µM in each case.

In the case of `COc1ccc(C(=O)O[C@@H]2CCN3CC[C@H](C)[C@H]23)cc1`, the TGI in the test on HCT-116 colon, in the test on HCT-15 colon, in the test on HT29 colon, with NCI-H226 lung, in the test on SF-539 CNS and with SK-MEL-28 melanoma was more than 100 µM each time. In addition, the concentration for total growth inhibition (TGI) in the test on SN12C renal, with SR leukemia and with TK-10 renal was more than 100 µM in each case.

Consider `CCOC(=O)c1sc(Nc2cc(Cl)ccc2Cl)nc1C`, for which the TGI in the test with HCT-116 colon, in the test with HCT-15 colon, in the test with HT29 colon, in the test on NCI-H226 lung, with SF-539 CNS and with SK-MEL-28 melanoma was more than 100 µM each time. In addition, the TGI in the test with SN12C renal, in the test with SR leukemia and in the test on TK-10 renal was more than 100 µM in each case.
